# Results from PubChem BioAssay (NCI).
#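 The compound was tested at five concentrations on cells cultured in 96-well plates, with a 48-hour exposure period. TGI: total growth inhibition.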
# Columns and labels:
# Assay in all cases: NCI tumour cell line growth inhibition, 48 h
# [1] = test system: 786-0 renal
# [2] = test system: A498 renal
# [3] = test system: A549 NSCLC
# [4] = test system: ACHN renal
# [5] = test system: BT-549 breast
# [6] = test system: CAKI-1 renal
# [7] = test system: COLO 205 colon
# [8] = test system: DU-145 prostate
# [9] = test system: EKVX NSCLC
# [10] = test system: HCC-2998 colon
# [11] = test system: HCT-116 colon
# [12] = test system: HCT-15 colon
# [13] = test system: HL-60(TB) leukemia
# [14] = test system: HOP-62 NSCLC
# [15] = test system: HOP-92 NSCLC
# [16] = test system: HS 578T breast
# [17] = test system: HT29 colon
# [18] = test system: IGROV1 ovarian
# [19] = test system: K-562 leukemia
# [20] = test system: KM12 colon
# [21] = test system: LOX IMVI melanoma
# [22] = test system: M14 melanoma
# [23] = test system: MALME-3M melanoma
# [24] = test system: MCF7 breast
# [25] = test system: MDA-MB-231 breast
# [26] = test system: MDA-MB-435
# [27] = test system: MDA-N
# [28] = test system: MOLT-4 leukemia
# [29] = test system: NCI-H226 lung
# [30] = test system: NCI-H23 lung
# [31] = test system: NCI-H460 lung
# [32] = test system: NCI/ADR-RES ovarian
# [33] = test system: OVCAR-3 ovarian
# [34] = test system: OVCAR-4 ovarian
# [35] = test system: OVCAR-5 ovarian
# [36] = test system: OVCAR-8 ovarian
# [37] = test system: PC-3 prostate
# [38] = test system: RPMI-8226 leukemia
# [39] = test system: RXF 393 renal
# [40] = test system: SF-268 CNS
# [41] = test system: SF-295 CNS
# [42] = test system: SF-539 CNS
# [43] = test system: SK-MEL-2 melanoma
# [44] = test system: SK-MEL-28 melanoma
# [45] = test system: SK-MEL-5 melanoma
# [46] = test system: SK-OV-3 ovarian
# [47] = test system: SN12C renal
# [48] = test system: SNB-19 CNS
# [49] = test system: SNB-75 CNS
# [50] = test system: SW-620 colon
# [51] = test system: T-47D breast
# [52] = test system: TK-10 renal
# [53] = test system: U251 CNS
# [54] = test system: UACC-257 melanoma
# [55] = test system: UACC-62 melanoma
# [56] = test system: UO-31 renal
structure (smiles),measurement,setting,value
CC[N+]1(C)CCC(O)(/C=C/c2ccc(OC)cc2)C(C(=O)/C=C/c2ccc(OC)cc2)C1 (stereo unspecified),TGI,[1],> 25.8 µM
same,TGI,[2],31.4 µM
same,TGI,[3],> 58 µM
same,TGI,[4],23.2 µM
same,TGI,[5],49.7 µM
same,TGI,[6],3.93 µM
same,TGI,[7],8.08 µM
same,TGI,[8],31.2 µM
same,TGI,[9],> 71.1 µM
same,TGI,[10],46.4 µM
same,TGI,[11],> 48.3 µM
same,TGI,[12],> 55.4 µM
same,TGI,[13],5.03 µM
same,TGI,[14],42.9 µM
same,TGI,[15],34.5 µM
same,TGI,[16],> 85 µM
same,TGI,[17],> 74.5 µM
same,TGI,[18],47.1 µM
same,TGI,[19],4.5 µM
same,TGI,[20],16.8 µM
same,TGI,[21],> 22.5 µM
same,TGI,[22],30.8 µM
same,TGI,[23],34.6 µM
same,TGI,[24],> 42.6 µM
same,TGI,[25],> 53.9 µM
same,TGI,[26],28.2 µM
same,TGI,[27],> 50.1 µM
same,TGI,[28],4.94 µM
same,TGI,[29],> 100 µM
same,TGI,[30],42.6 µM
same,TGI,[31],> 35.6 µM
same,TGI,[32],> 60.8 µM
same,TGI,[33],53 µM
same,TGI,[34],> 59.6 µM
same,TGI,[35],44.1 µM
same,TGI,[36],> 56.2 µM
same,TGI,[37],42.6 µM
same,TGI,[38],1.04 µM
same,TGI,[39],28.4 µM
same,TGI,[40],> 59.7 µM
same,TGI,[41],39.1 µM
same,TGI,[42],> 45.7 µM
same,TGI,[43],39.7 µM
same,TGI,[44],31.7 µM
same,TGI,[45],31.9 µM
same,TGI,[46],36.7 µM
same,TGI,[47],> 58.5 µM
same,TGI,[48],35.6 µM
same,TGI,[49],40.6 µM
same,TGI,[50],7.42 µM
same,TGI,[51],24.6 µM
same,TGI,[52],11.6 µM
same,TGI,[53],33.9 µM
same,TGI,[54],42.4 µM
same,TGI,[55],43.8 µM
same,TGI,[56],26.6 µM
